d = 2'-deoxy (DNA); r = 2'-OH (RNA)
Tests used:
Format in all cases: cell-based, human
GAPDH [1] = assay: Carrier-free GAPDH knockdown in different cell types (HOB, HCT116, MG63) by RT-PCR
Experimental: Primary human osteoblast (HOB) cells isolated from human trabecular bone and keratinocytes and fibroblasts cells were isolated from skin tissue from healthy human donors. MG63 (human osteosarcoma cell line), HCT116 (human colon cancer cell line), HEK293 (human embryonic kidney 293 cells), C2C12 (mouse myoblast cell line) and MC3T3 (mouse osteoblast precursor cell line) cell lines were obtained from American Type Culture Collection, ATCC (Manassas, Va., USA). Cells were cultured until confluence was reached. The human cell experiments were approved by the local ethics committee (Ethical approval # Ups 03-561).
At 70% confluency, a day prior to transfection, the cells were seeded at a density of 35 000 cells in a 24-well cell culture plate to achieve 60-80% confluence at the day of transfection. Cell penetrating siRNAs (cpRNAs) of different lengths were transfected at 50 nM concentrations with Magnet Assisted Transfection (MATra-si) reagent for siRNAs (IBA GmbH, Göttingen, Germany) according to the manufacturers' protocols. […]
cDNA synthesis was performed in triplicate using total RNA reverse transcribed using High Capacity cDNA reverse transcription kit (Applied Biosystems, USA), with non-template control added to ensure a lack of signal in assay background. […] Data from samples with a Ct value equal to or below 35 were further analyzed. Samples were normalized relative to endogenous control and differences in cycle number thresholds were calculated using comparative quantitation 2^−ΔΔcT method (also called the ΔΔCT method), commonly used for analyzing siRNA induced gene knockdown efficiency.
The formulas used to calculate gene knockdown were as follows: First, the ΔCT was calculated as the mean cycle threshold for the target gene minus the mean cycle thresholds for the endogenous controls ACTB, each performed in triplicates: ΔCT=CT (target gene)−CT (endogenous control). Secondly, the ΔΔCT was calculated as the ΔCT of the target minus the ΔCT of negative control (NC): ΔΔCT=ΔCT (target)−ΔCT (NC). […]

MG63 cells = assay: Fluorescence / confocal microscopy of cellular distribution in MG63 cells; settings: fluorescently labelled, transfection reagent free
Experimental: Cellular uptake experiments were performed by plating cells (1×10^4) in an 8 well chamber slide. At 70% confluency, the cells were transfected with 50 nM Cy3-cpRNA and incubated at 37° C. for 24 h. Control wells were left untreated. Each transfection was performed in triplicate. […] The slides were mounted using Vectashield mounting medium containing 4′, 6-diamidino-2-phenylindole (DAPI) (Vector Labs, Burlingame, Calif.) to stain the nuclei of cells.
MG63—human osteosarcoma cells were cultured in α-MEM (Sigma-Aldrich, Haverhill, UK) medium containing 10% FBS, 1% L-Glutamine, and 1% antibiotics (PeSt) at 37° C. with 5% CO2. One day prior to the siRNA treatment, 35,000 cells were plated per each well of a 24-well plate. On the experiment day, cells were replaced with 10% heat inactivated-FBS containing α-MEM medium with 1% L-Glutamine, and 1% antibiotics (PeSt). Fluorescently (Cy3) labelled CP-siRNA and nicked CP-siRNA having GAPDH targeting sequence (final concentration: 50 nM) was given to the each well. After 24 hours the cells were washed with PBS and fixed with 4% formaldehyde for 20 mins at room temperature and then washed twice with PBS. DAPI (1 ug/ml in PBS) was added to cells for 5 mins and then washed with PBS. The cells were then visualized in Nikon TiU at 20×+1.5× and analysed with the Nikon Imaging software.

GAPDH [2] = assay: Energy dependence of cpRNA uptake: transfection at 4° C. or 37° C., GAPDH knockdown; settings: carrier-free
Experimental: To determine, if cellular uptake of cpRNA is an energy dependent endocytosis process, transfection experiments were performed at 4° C. and 37° C. Briefly, HCT116, HOB and MG63 cells were plated and incubated with cpRNA (dT5 or dA5 or scrambled siRNA sequence) at 4° C. or 37° C. for 4 h. After 4 h, medium was replaced with fresh medium and the cells were incubated for additional 24 h. Untreated cells were used as controls. Each transfection was performed in triplicate. […] Cellular uptake using these siRNA sequences was reduced by nearly 30% when experiments were performed at 4° C., see FIG. 4.
Next, it was investigated if the cellular uptake mechanism of cpRNA occurred by endocytosis. Transfection experiments were performed with dT5-modified cpRNA at 4° C. and found lower RNAi activity (50% gene knockdown) compared to activity at 37° C. […] Upon endocytosis, the 5-nt overhang length participated in an unknown endosomal escape mechanism that promoted cytosol transport of RNA. […] TLR-7, -8 and -9, selectively bind single-stranded DNA or RNA sequences with TLR-7 and -8 preferentially bind U and G rich sequence while TLR-9 bind CpG nt repeats. TLR3, on the other hand, nonspecifically binds the 21mer RNA duplex after dimerization of the receptor to form a 2:1 TLR3-RNA complex. […]

Substance	RNAi activity in primary cells (GAPDH [1]; primary cells)	cellular distribution (MG63 cells)	GAPDH gene knockdown at 4° C. (GAPDH [2]; incubation at 4° C. for 4 h, then 24 h)	GAPDH gene knockdown at 37° C. (GAPDH [2]; incubation at 37° C.)	GAPDH gene knockdown in different cell types (GAPDH [1]; 50 nM)	knockdown efficiency compared to canonical siRNA (GAPDH [1]; HOB, HCT116 and MG63 cells)
dT2: Canonical GAPDH siRNA, sense SEQ ID NO: 1, antisense SEQ ID NO: 2, dTdT 3′-overhang on both strands (sense CCGAGCCACAUCGCUCAGATT; antisense UCUGAGCGAUGUGGCUCGGTT; sugars from the 5' end r19 d2, backbone not given here) [reference compound]	only limited activity	localized distribution to endosome				
dT5: GAPDH siRNA, sense SEQ ID NO: 3 with dT5 3′-overhang, antisense SEQ ID NO: 2 with dT2 (sense CCGAGCCACAUCGCUCAGATTTTT; antisense UCUGAGCGAUGUGGCUCGGTT; sense: sugars from the 5' end r19 d5, backbone not given here; antisense: sugars from the 5' end r19 d2, backbone not given here)		perinuclear localization within cytosol	50%	80%	80%	3-4 fold

Source: patent publication US20180265867A1, “NUCLEIC ACID MOLECULES WITH ENHANCED ACTIVITY” (priority 2015, published 2018)
